Experiments:
[1] = tested on: Id1 promoter; experiment: Chromatin immunoprecipitation (ChIP) at the Id1 promoter in C2C12 cells; type: cell-based, mouse; details: co-stimulation with or stimulation with 8-Br-cGMP alone, 1 μmol/l, 4 hrs
Procedure: Chromatin immunoprecipitation (ChIP) was performed using (A) α-cGKI or α-Smad1 antibody or (B) α-Smad1 followed by α-cGKI antibody and vice versa or (C) α-Smad1 followed by α-TFII-I antibody and vice versa. Subsequent PCR identified a co-precipitated Id1 promoter sequence using specific primers. […] To exclude unspecific outcome control samples were run (for ChIP: no antibody, IgG, α-GFP antibody; for two-step ChIP: α-respective antibody followed by IgG; for unspecific amplification via PCR: no template). […] C2C12 cells were stimulated with BMP-2 for 4 h or left unstimulated. Endogenous chromatin immunoprecipitations (ChIP) of a specific Id1 promoter fragment was performed using α-Smad1 and α-cGKI antibodies (left). Id1 promoter was assayed for cGKI/TFII-I complex formation by one-step and two-step ChIP with the indicated antibodies. (D) Endogenous complexes with cGKI from C2C12 cells were analyzed with α-TFII-I, α-Smad1 and α-Smad4 antibodies and a lysate aliquot was monitored for protein expression. (E) Smad1/TFII-I association was analyzed in 293T cells expressing both proteins. IP was performed using a Smad1 directed antibody and the pellets were examined for co-IP of TFII-I. Lysate control was done by immunoblotting α-Smad1 and α-TFII-I.
Briefly, C2C12 cells were grown to a confluence of 80-90% (10 cm dish). […] PCR products were separated on 8% PA gels and analyzed under UV light.

[2] = tested on: BMP response element (BRE from Id1 promoter) luciferase reporter; experiment: BRE luciferase reporter gene assay in C2C12 cells; type: cell-based, mouse
Procedure: Luciferase activity was measured and error bars result from the mean of duplicate measurements. […] Expression of cGKIα/β was controlled by immunoblot using α-cGKI antibody. (C) As in (A and B) except that reporters were co-transfected with sh-cGKI, sh-cGKI mix and sh-control into C2C12 cells. BRE driven luciferase activity was measured and error bars represent deviation of the mean of duplicate measurements. […] Following cell extraction RNA was reverse transcribed into cDNA. The mRNA amount of Id1 was analyzed using Id1 specific primers including the control of applied cDNA by PCR using β-actin specific primers. The result is derived from a representative experiment. (F) As in (A and B), except that reporters were co-transfected with cGKIα and MYC-TFII-I into C2C12 cells. […] Lysates were pooled and immunoblotted for expression of cGKIα and TFII-I. (G) As in (E) except that mRNA amount of cGKI was analyzed using cGKI specific primers. The result is derived from an exemplary experiment. Results were quantified using ImageJ. cGKI mRNA expression was normalized relative to β-actin. […] Fold changes in BRE reporter activities were normalized to the non-treated empty vector control (mean±SD). […] The PDGF- or serum-induced proliferation was measured.
C2C12 cells were transfected with pBRE4-luc and pRL-TK and indicated constructs. […] Luciferase activity was measured according to manufacturer's instructions using the Dual-Luciferase® Reporter Assay System (Promega) and a FB12 or Mithras LB 940 luminometer (Berthold). Expression control was examined by immunoblotting.

[3] = tested on: VASP; experiment: Endogenous VASP phosphorylation in C2C12 cells (immunoblot); type: cell-based, mouse; details: 1 μmol/l 8-Br-cGMP
Procedure: Endogenous VASP phosphorylation in C2C12 cells was monitored in response to 1 μmol/l and 100 μmol/l 8-Br-cGMP stimulation. Lysates were analyzed using immunoblot α-pVASP and α-β-actin.

[4] = tested on: cGKI; experiment: Immunofluorescence microscopy of cGKI localization in C2C12 cells; type: cell-based, mouse; details: stimulation for 30 min
Procedure: (C) Immunofluorescence staining of cGKI in C2C12 cells after stimulation with BMP-2 or 8-Br-cGMP. DNA was stained using Hoechst dye.
Analysis was done with 63-fold magnification at a Leica DMR (Leica) confocal microscope. To examine the protein localization C2C12 cells or transfected 293T cells were starved for 3 hrs and either stimulated with 10 or 20 nmol/l BMP-2 and/or 1 mmol/18-Br-cGMP for 30 min or for 5 to 60 min or left untreated. Indirect immunofluorescence was performed as described in (Bengtsson and Wilson, 2006). Cells were analyzed using fluorescence microscopy (63-fold magnification, Axiovert 200M, Zeiss).

[5] = target: T1, GST-BRII-tail (methionine 501 to leucine 1038) (UniProt Q13873)
T1 sequence: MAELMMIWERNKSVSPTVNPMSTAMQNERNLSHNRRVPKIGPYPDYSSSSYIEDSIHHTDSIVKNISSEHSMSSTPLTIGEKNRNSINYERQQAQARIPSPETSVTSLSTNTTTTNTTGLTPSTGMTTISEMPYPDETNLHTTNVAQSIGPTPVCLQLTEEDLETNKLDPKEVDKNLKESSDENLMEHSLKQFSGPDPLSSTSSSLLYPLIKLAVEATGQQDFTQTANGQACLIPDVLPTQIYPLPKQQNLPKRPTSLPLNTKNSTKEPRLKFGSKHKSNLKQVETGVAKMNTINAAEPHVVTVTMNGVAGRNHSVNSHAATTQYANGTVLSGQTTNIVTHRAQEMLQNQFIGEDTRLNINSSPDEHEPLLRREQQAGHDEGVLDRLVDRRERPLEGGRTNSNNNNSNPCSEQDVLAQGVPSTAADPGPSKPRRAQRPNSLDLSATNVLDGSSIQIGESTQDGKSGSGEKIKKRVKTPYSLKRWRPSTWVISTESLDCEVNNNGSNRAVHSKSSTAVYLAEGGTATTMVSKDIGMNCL

[6] = tested on: Smad1/5/8; experiment: Smad phosphorylation assay in C2C12 cells; type: cell-based, mouse; details: without ligand, sh-cGKI versus sh-control
Source text: (§1) Whole cellular extracts were subjected to immunoblot using α-pSmad1/5/8 antibody. α-cGKIβ and α-β-actin immunoblotting was used as expression and loading control. To monitor the activity of cGKIβ the membrane was re-probed with α-pVASP antibody. Results were quantified using ImageJ and Smad1 C-terminal phosphorylation was normalized relative to β-actin. […] (C) Efficiency of cGKI knock down using a specific short hairpin-RNA (sh-cGKI) compared to a control (sh-control) was validated in C2C12 cells via immunoblot using α-cGKI antibody. Applied protein amount was controlled by α-β-tubulin antibody. (D) C2C12 cells were transfected with sh-cGKI and sh-control and subjected as in (A) to Smad phosphorylation assay. Smad1/5/8 phosphorylation and protein loading was monitored with α-pSmad1/5/8 and α-β-actin antibodies. Results were quantified using […]) and Smad1/5 C-terminal phosphorylation was normalized relative to β-actin.
(§2) Cell lysis and immunoblotting was performed as described in (Hartung et al., 2006).

[7] = tested on: Smad1; experiment: Smad phosphorylation assay in transfected 293T cells; type: cell-based; details: 293T cells co-expressing Smad1, non-stimulated and BMP-2/8-Br-cGMP co-stimulated
Source text: as §1, §2

[8] = tested on: HA-BRII-LF Q657ins16; experiment: BRE reporter assay with BRII PAH mutant in C2C12 cells; type: cell-based, mouse; details: C2C12 cells overexpressing cGKI and PAH mutant versus mutant alone
Procedure: (§3) Luciferase activity was measured and error bars result from the mean of duplicate measurements. […] Expression of cGKIα/β was controlled by immunoblot using α-cGKI antibody. (C) As in (A and B) except that reporters were co-transfected with sh-cGKI, sh-cGKI mix and sh-control into C2C12 cells. BRE driven luciferase activity was measured and error bars represent deviation of the mean of duplicate measurements. […] Luciferase activities are represented as mean of each value and standard deviations result from duplicate measurements. […] Following cell extraction RNA was reverse transcribed into cDNA. The mRNA amount of Id1 was analyzed using Id1 specific primers including the control of applied cDNA by PCR using β-actin specific primers. The result is derived from a representative experiment. (F) As in (A and B), except that reporters were co-transfected with cGKIα and MYC-TFII-I into C2C12 cells. BRE driven luciferase activity was measured, standard deviations result from duplicate measurements. […] Lysates were pooled and immunoblotted for expression of cGKIα and TFII-I. (G) As in (E) except that mRNA amount of cGKI was analyzed using cGKI specific primers. The result is derived from an exemplary experiment. Results were quantified using ImageJ. cGKI mRNA expression was normalized relative to β-actin. […] The PDGF- or serum-induced proliferation was measured. […]

[9] = tested on: human aortic smooth muscle cells; experiment: PDGF- or serum-induced proliferation of human aortic smooth muscle cells expressing BMPRII mutant; type: cell-based; details: cells transfected with MYC-BMPRII-Q567ins16 with cGKI coexpression, 24 h
Procedure: as §3

## Nc1nc2c(nc(Br)n2[C@@H]2O[C@@H]3COP(=O)(O)O[C@H]3[C@H]2O)c(=O)[nH]1 [8-Br-cGMP]
[1]
  effect on binding of Smad1 and cGKI to the Id1 promoter: did not affect
[2]; C2C12 cells, endogenous cGKI, 1 nmol/l BMP-2 and/or 1 μmol/l or 100 μmol/l 8-Br-cGMP, 24 hrs
  BRE reporter gene activity upon stimulation: did not affect
[3]
  cGKI-mediated VASP phosphorylation: weak cGKI-mediated VASP phosphorylation
[4]
  nuclear translocation of endogenous cGKI: redistribution of cGKI to the nucleus

## recombinant cGKIα (Promega)
[5]
  in vitro phosphorylation (γ-32P-ATP, autoradiography), cGKIα activated with 8-Br-cGMP: BRII-tail was phoshorylated by activated cGKlα

## sh-cGKI: shRNA construct specific for mouse cGKI, SEQ ID NO 3 (CACCGGGACGATGTTTCTAACAAACGAATTTGTTAGAAACATCGTCC; listed as Homo sapiens)
[2]; C2C12 cells transfected with sh-cGKI versus sh-control, BMP-2 stimulated
  BRE reporter gene response upon ligand stimulation compared to control cells: less than 50%
[6]
  endogenous Smad1/5/8 phosphorylation: reduced

B1: cGKIβ: β isoform of cGMP-dependent protein kinase I, SEQ ID NO 2 (protein, listed as Homo sapiens)
chain: MGTLRDLQYALQEKIEELRQRDALIDELELELDQKDELIQKLQNELDKYRSVIRPATQQAQKQSASTLQGEPRTKRQAISAEPTAFDIQDLSHVTLPFYPKSPQSKDLIKEAILDNDFMKNLELSQIQEIVDCMYPVEYGKDSCIIKEGDVGSLVYVMEDGKVEVTKEGVKLCTMGPGKVFGELAILYNCTRTATVKTLVNVKLWAIDRQCFQTIMMRTGLIKHTEYMEFLKSVPTFQSLPEEILSKLADVLEETHYENGEYIIRQGARGDTFFIISKGTVNVTREDSPSEDPVFLRTLGKGDWFGEKALQGEDVRTANVIAAEAVTCLVIDRDSFKHLIGGLDDVSNKAYEDAEAKAKYEAEAAFFANLKLSDFNIIDTLGVGGFGRVELVQLKSEESKTFAMKILKKRHIVDTRQQEHIRSEKQIMQGAHSDFIVRLYRTFKDSKYLYMLMEACLGGELWTILRDRGSFEDSTTRFYTACVVEAFAYLHSKGIIYRDLKPENLILDHRGYAKLVDFGFAKKIGFGKKTWTFCGTPEYVAPEIILNKGHDISADYWSLGILMYELLTGSPPFSGPDPMKTYNIILRGIDMIEFPKKIAKNAANLIKKLCRDNPSERLGNLKNGVKDIQKHKWFEGFNWEGLRKGTLTPPIIPSVASPTDTSNFDSFPEDNDEPPPDDNSGWDIDF
[7]
  C-terminal Smad1 phosphorylation: resulted in phosphorylation of Smad1

B2: cGKI: cGMP-dependent protein kinase I (α or β isoform, SEQ ID NO 1 or 2), overexpressed in cells (protein, UniProt Q13976 2-671, looked up)
cGMP-dependent protein kinase …: SELEEDFAKILMLKEERIKELEKRLSEKEEEIQELKRKLHKCQSVLPVPSTHIGPRTTRAQGISAEPQTYRSFHDLRQAFRKFTKSERSKDLIKEAILDNDFMKNLELSQIQEIVDCMYPVEYGKDSCIIKEGDVGSLVYVMEDGKVEVTKEGVKLCTMGPGKVFGELAILYNCTRTATVKTLVNVKLWAIDRQCFQTIMMRTGLIKHTEYMEFLKSVPTFQSLPEEILSKLADVLEETHYENGEYIIRQGARGDTFFIISKGTVNVTREDSPSEDPVFLRTLGKGDWFGEKALQGEDVRTANVIAAEAVTCLVIDRDSFKHLIGGLDDVSNKAYEDAEAKAKYEAEAAFFANLKLSDFNIIDTLGVGGFGRVELVQLKSEESKTFAMKILKKRHIVDTRQQEHIRSEKQIMQGAHSDFIVRLYRTFKDSKYLYMLMEACLGGELWTILRDRGSFEDSTTRFYTACVVEAFAYLHSKGIIYRDLKPENLILDHRGYAKLVDFGFAKKIGFGKKTWTFCGTPEYVAPEIILNKGHDISADYWSLGILMYELLTGSPPFSGPDPMKTYNIILRGIDMIEFPKKIAKNAANLIKKLCRDNPSERLGNLKNGVKDIQKHKWFEGFNWEGLRKGTLTPPIIPSVASPTDTSNFDSFPEDNDEPPPDDNSGWDIDF
[2]; transfected C2C12 cells, in the absence of BMP-2
  BRE reporter activity upon overexpression: increased
[8]
  BRE activity in cells expressing the PAH mutant BRII: rescues defective BMP signaling
[9]
  PDGF- or serum-induced proliferation: downregulated

From patent US20110045568A1, “METHOD FOR RESTORING BMP-RECEPTOR SIGNALING IN A CELL” (FREIE UNIVERSITÄT BERLIN, priority 2008, published 2011)
